Measurements as given in US20250200763A1, “4D FLUORESCENCE MICROSCOPY ORGANELLE NETWORK TRACKING” (THE REGENTS OF THE UNIVERSITY OF CALIFORNIA, priority 2022, published 2025).
“Also recorded” adds a separate entry of the source.

Experiments:
[1] = test system: mitochondrial network in hiPSCs; assay: Network reachability: random walk / material diffusion simulation on tracked temporal mitochondrial networks; type: cell-based, human; conditions: drug-treated, control 0.18
Description: To quantify transport across the 4D mitochondrial network, a random walk on the tracked temporal mitochondrial networks was simulated and the process was measured in the form of network reachability (see “Material diffusion simulation on temporal mitochondrial networks”). Reachability for a node indicates how easily can material/information reach this node from various parts of the overall network, via the time respecting paths defined by the network tracking.
Diffusion simulation was used on temporal dynamic mitochondrial network to understand the flow of material in mitochondrial networks. To calculate global reachability, we initiate a virtual token at every node of the mitochondrial network at the first timestep. Each token is labeled by the source node from which it originated. At every timestep, each node duplicates the tokens it currently has, and transfers them to the connected neighbors. At the end of the simulation, the global reachability for each node is quantified by the number of unique tokens at that node, corresponding to the number of source nodes this node can reach.
FIGS. 25A and 25B illustrate schematics for material diffusion simulation on temporal network. FIG. 25A illustrates the global reachability simulation. From each node, material can diffuse into the neighboring nodes or stay in the source node. All possible diffusion pathways over time are marked with an arrow. Time is depicted from left to right. Arrows in different thicknesses 2502, 2504, 2506, 2508, 2510, 2512 indicate representative simulation scenarios. After four timesteps, the target node labeled with X has accumulated three tokens (through the transport arrows). FIG. 25B illustrates the calculation for betweenness centrality used for determining the central nodes.
Drug Treatments: All drugs were dissolved in DMSO to make a stock solution and diluted in PBS to prepare a 100× working stock. Cells were treated with oligomycin (20 μM, 2 hr), nocodazole (5 uM, 30 min), and MDIVI-1 (10 μM, 12 hr) without wash. […]

[2] = test system: mitochondrial network in hiPSCs; assay: Mitochondrial temporal network remodeling (mean degree difference, temporal intersection) from MitoTNT 4D tracking of LLSM data; type: cell-based, human; conditions: drug-treated; for mean degree difference (DD): control DD 0.28, low DD = little remodeling; for temporal intersection (TI): control TI 0.58, low TI = drastic remodeling
Description: To quantify mitochondrial network remodeling, the mean degree difference (DD) and the temporal intersection (TI) were calculated. A low DD indicates a low rate of nodes breaking off from their neighbors and reconnecting with other nodes. Inversely, a low TI implies that the network is very dynamic and does undergo drastic remodeling. […] In contrast, when treated with oligomycin, it was observed a 0.52 DD and 0.44 TI indicating a high level of network remodeling. Cytoskeleton influences drive network remodeling events were hypothesized.
Human induced pluripotent stem cell (hiPSC) culture: All studies involving hiPSCs were performed under approval from the University of California San Diego IRB/ESCRO committee. WTC hiPSCs expressing the CAAX domain of K-ras tagged with m TagRFP-T were created at the Allen Institute for Cell Science and obtained through the UCB Cell Culture Facility. hiPSC colonies were expanded on dishes coated with growth factor reduced Matrigel (Corning, 354230) in mTeSR1 (Stemcell Technologies, 85850) containing 1% penicillin/streptomycin (Gibco, 15140122). Colonies were washed with DPBS (Gibco, 14190144) and detached with accutase (Stemcell Technologies, 07920) before plating onto imaging dishes. Cultures were tested routinely for mycoplasma.
Drug Treatments: All drugs were dissolved in DMSO to make a stock solution and diluted in PBS to prepare a 100× working stock. Cells were treated with oligomycin (20 μM, 2 hr), nocodazole (5 uM, 30 min), and MDIVI-1 (10 μM, 12 hr) without wash.
Live cell imaging: 371 CAAX-RFPhiPSCs were stained with 100 nM Mito Tracker Green FM (Invitrogen, M7514) for 30 min prior to imaging. Cells were plated onto 25 mm MatTek dishes and imaged in phenol-red free mTeSR1 (Stemcell Technologies, 85850). Cells were kept under 5% CO2 and 37 degrees C. For imaging, Zeiss LLSM 7 was used with 10×N.A. 0.4 illumination objective lens and 48×375 N.A. 1.0 detection objective lens. Images were acquired in two channels: green channel with excitation at 488 nm and emission at 512 nm; red channel with excitation at 561 nm and emission at 597 nm. For both channels we used 18% laser power and 8 ms exposure. The illumination light-sheet was the Sinc3 beam with length 15 μm, thickness 650 nm and no side lobes. The volume size was 2048×448×57 pixels or 296.94×64.96×8.12 μm with isotropic pixel size 145 nm after coverglass transformation. Images were saved with bit depth 16 bits. For each region, 93 frames were imaged with frame rate 3.26 s per volume for total 5 min. For LLSM data processing, the Lattice Lightsheet 7 Processing Module on ZEN Blue was used for deconvolution, deskew, and cover glass transformation. Further processing is then done using MitoGraph and MitoTNT.

[3] = test system: mitochondrial network in hiPSCs; assay: Fission/fusion preference with respect to fragment size (normalized network fragment size difference); type: cell-based, human; conditions: hiPSCs with disrupted microtubules, vs DMSO control
Description: To detect fission and fusion events in the network, a sliding-window approach is applied to identify nodes that undergo persistent structural changes as opposed to transient segmentation variations. First, the fragment indices for each node are recorded for the half win size frames before and after the current frame, to form the fragment list. Second, for each network edge, the fragment lists for the connected nodes are compared. Fission will be declared if the fragment lists before the current frame are strictly identical, as well as the fragment lists after the current frame are strictly non-overlapping. Since fusion events can be considered as fission events reversed in time, the opposite criterion is used for fusion detection. In the case that multiple remodeling nodes are located in proximity (less than 5 edges away), the nodes are grouped into a single fission/fusion site. At last, the center of the sliding window is moved to the next frame and the computation is iterated.
To provide mechanistic insights into network remodeling, the motility between randomly selected nodes and nodes undergoing fission and fusion was compared. […] Based on node tracking, each individual mitochondrial network fragment can be tracked as shown in FIG. 17C and the selectivity of fission and fusion events recorded in terms of fragment size. […]

[4] = test system: mitochondria networks in cells; assay: Distribution of graph size ratio for fission/fusion events (preliminary 4D network tracking); type: cell-based; conditions: microtubule-disrupted cells vs DMSO control cells
Description: Preliminary results. 4D mitochondrial network tracking and fission/fusion statistics analysis indicate a selection bias in fission and fusion reaction in normal cells, which is not present when cells are treated with nocodazole. FIGS. 3A and 3B show data plots depicting a distribution of graph size ratio for fission/fusion events. Depicted is the normalized mitochondria fragment size immediately after or before fission or fusion events, respectively. Graph size ratio for a particular mitochondria undergoing fission/fusion computed as the size of the mitochondria network normalized by the total size of all mitochondria networks involved. Values close to 0 and 1 correspond to small and large mitochondria relative to the total size. The metric is calculated and plotted for every fragment undergoing detected fission/fusion events. FIGS. 3A and 3B illustrate histogram bars and gaussian-smoothed curves for fission and fusion. The gaussian-smoothed curves 310 and 330 are for fission and the gaussian-smoothed curves 320 and 340 are for fusion.

[5] = test system: mitochondrial network in hiPSCs; assay: Mitochondrial network motility and motion correlation analysis by node tracking; type: cell-based, human
Excerpt: To measure the network motility of the mitochondrial network, mean-square-displacements (MSDs) vs. time delay curves are computed following previous works. The node ensemble averaged MSDs are plotted for control and oligomycin (See FIGS. 24A and 24B). The MSDs for single tracks are plotted for control and oligomycin (See FIGS. 24C and 24D). Around 80% of the nodes have a coefficient of determination for linear fit greater than 0.8 (see FIG. 15F). To map diffusivity onto mitochondrial nodes, the network nodes are firstly chosen at a center frame. Next, the node track coordinates 10 frames before and 10 frames after the center frame are collected. In a last step, the MSDs are computed at various time delays in this time window to determine the diffusivity of each node.
To compute vector correlation, the displacement vector is firstly obtained for a selected node at a selected frame. Next, the vector correlation is computed, as well as the vectors for the selected node at timepoints 1 frame before and after the selected frame. The vector correlation is computed between this vector and vectors for the nodes directly connected to it and given by the dot product of two vectors, divided by the square of the norm of the longer vector. The final correlation value for the selected node at the selected time is reported as the average of these two values.
To further investigate network branch motility, tracking vectors correlated between adjacent nodes on the same segment, and between the same node at consecutive frames. […] In contrast, temporal correlation between frames is predominantly zero (random motion) to slightly negative (oscillating motion), while interspersed with short period of positive values (directional motion) as shown in FIG. 16E. […] In FIG. 16F, the correlation along skeleton 1610 and the correlation in time 1620 are shown. The ATP synthase inhibitor oligomycin that induces mitochondrial fragmentation was employed to investigate if motion correlation findings are dependent upon network morphologies as shown in FIGS. 16G and 16H. […]

| SMILES | average reachability of network nodes [1] | mean degree difference (DD) [2] | temporal intersection (TI) [2] | asymmetric fission/fusion events [3] | distribution of graph size ratio for fission/fusion events (selection bias) [4] | motility of drug induced fragments ([5]; vs DMSO control) | spatial motion correlation (along skeleton) ([5]; vs control) | temporal motion correlation (between frames) ([5]; vs control) |
| --- | --- | --- | --- | --- | --- | --- | --- | --- |
| COc1cc(-n2c(=S)[nH]c3ccccc3c2=O)c(Cl)cc1Cl [mdivi-1] | 0.35 |  |  |  |  |  |  |  |
| COC(=O)Nc1nc2ccc(C(=O)c3cccs3)cc2[nH]1 [nocodazole] | 0.29 | did not induce drastic changes | did not induce drastic changes | less pronounced but preserved; also recorded: a decrease in asymmetric fission/fusion | not present; also recorded: flatter distribution |  |  |  |
| CC[C@H]1/C=C/C=C/C[C@@H](C)[C@H](O)[C@@](C)(O)C(=O)[C@@H](C)[C@H](O)[C@@H](C)C(=O)[C@@H](C)[C@H](O)[C@@H](C)/C=C/C(=O)O[C@@H]2[C@H](C)[C@H](CC1)O[C@]1(CC[C@H](C)[C@H](C[C@@H](C)O)O1)[C@H]2C [oligomycin] | 0.64 | 0.52 | 0.44 |  |  | move considerably faster compared to control | dropped | remains similar |
